Measurements: ChEMBL document CHEMBL5291721, “A preclinical secondary pharmacology resource illuminates target-adverse drug reaction associations of marketed drugs” (Nat Commun, 2023)

What was measured:
[1] = biological target: Prostaglandin G/H synthase 1 (Homo sapiens, UniProt P23219); format: functional
[2] = biological target: Sodium-dependent dopamine transporter (Homo sapiens, UniProt Q01959)
D(1A) dopamine receptor = D(1A) dopamine receptor (Homo sapiens, UniProt P21728)
Estrogen receptor = biological target: T1, Estrogen receptor (Homo sapiens, UniProt P03372)
T1 sequence (P03372 whole entry): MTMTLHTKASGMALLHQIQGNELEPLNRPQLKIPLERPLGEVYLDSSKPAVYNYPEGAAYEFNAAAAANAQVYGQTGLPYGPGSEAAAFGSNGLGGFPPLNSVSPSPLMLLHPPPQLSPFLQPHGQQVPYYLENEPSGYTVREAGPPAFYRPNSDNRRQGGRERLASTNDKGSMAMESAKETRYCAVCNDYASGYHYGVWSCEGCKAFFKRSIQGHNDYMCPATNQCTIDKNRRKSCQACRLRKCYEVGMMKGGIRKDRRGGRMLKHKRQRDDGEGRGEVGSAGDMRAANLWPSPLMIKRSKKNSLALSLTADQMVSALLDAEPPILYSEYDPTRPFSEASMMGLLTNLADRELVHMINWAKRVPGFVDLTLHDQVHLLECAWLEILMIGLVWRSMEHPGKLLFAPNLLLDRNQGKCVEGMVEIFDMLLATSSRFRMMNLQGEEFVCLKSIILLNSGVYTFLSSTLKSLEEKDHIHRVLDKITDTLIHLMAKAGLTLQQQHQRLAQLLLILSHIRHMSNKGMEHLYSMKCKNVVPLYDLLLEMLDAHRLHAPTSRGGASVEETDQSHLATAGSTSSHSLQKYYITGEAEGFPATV

[3] = biological target: Sodium-dependent noradrenaline transporter (Homo sapiens, UniProt P23975)
[4] = biological target: 5-hydroxytryptamine receptor 2B (Homo sapiens, UniProt P41595); format: functional, cell-based
Mu-type opioid receptor = Mu-type opioid receptor (Homo sapiens, UniProt P35372)
[5] = biological target: T2, Alpha-1A adrenergic receptor (Homo sapiens, UniProt P35348); format: functional, cell-based
T2 sequence (P35348 whole entry): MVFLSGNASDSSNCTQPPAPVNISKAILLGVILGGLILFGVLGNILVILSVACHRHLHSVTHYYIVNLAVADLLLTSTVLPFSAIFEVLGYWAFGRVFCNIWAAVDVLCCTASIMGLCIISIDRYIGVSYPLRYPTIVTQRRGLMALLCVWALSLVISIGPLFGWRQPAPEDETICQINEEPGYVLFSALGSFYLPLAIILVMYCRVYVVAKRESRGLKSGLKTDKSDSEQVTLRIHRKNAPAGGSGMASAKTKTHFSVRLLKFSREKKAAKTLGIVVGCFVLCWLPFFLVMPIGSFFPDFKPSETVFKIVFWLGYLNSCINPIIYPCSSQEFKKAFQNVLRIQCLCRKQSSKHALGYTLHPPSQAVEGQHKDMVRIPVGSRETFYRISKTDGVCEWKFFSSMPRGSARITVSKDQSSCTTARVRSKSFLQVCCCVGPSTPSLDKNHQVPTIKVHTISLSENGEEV

Prothrombin = Prothrombin (Homo sapiens, UniProt P00734); format: functional
Thromboxane A2 receptor = biological target: T3, Thromboxane A2 receptor (Homo sapiens, UniProt P21731); format: functional, cell-based
T3 sequence (P21731 whole entry): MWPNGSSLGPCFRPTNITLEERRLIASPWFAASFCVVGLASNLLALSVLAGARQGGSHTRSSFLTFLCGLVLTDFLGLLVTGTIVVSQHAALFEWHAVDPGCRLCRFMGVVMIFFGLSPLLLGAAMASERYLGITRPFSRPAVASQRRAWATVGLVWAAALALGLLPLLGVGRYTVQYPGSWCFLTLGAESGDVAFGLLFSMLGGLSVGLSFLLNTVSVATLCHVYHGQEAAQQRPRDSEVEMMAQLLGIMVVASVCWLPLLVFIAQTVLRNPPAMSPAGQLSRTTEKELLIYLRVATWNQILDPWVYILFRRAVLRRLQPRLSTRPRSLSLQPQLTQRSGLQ

[6] = biological target: T4, Alpha-2A adrenergic receptor (Homo sapiens, UniProt P08913)
T4 sequence (P08913 whole entry): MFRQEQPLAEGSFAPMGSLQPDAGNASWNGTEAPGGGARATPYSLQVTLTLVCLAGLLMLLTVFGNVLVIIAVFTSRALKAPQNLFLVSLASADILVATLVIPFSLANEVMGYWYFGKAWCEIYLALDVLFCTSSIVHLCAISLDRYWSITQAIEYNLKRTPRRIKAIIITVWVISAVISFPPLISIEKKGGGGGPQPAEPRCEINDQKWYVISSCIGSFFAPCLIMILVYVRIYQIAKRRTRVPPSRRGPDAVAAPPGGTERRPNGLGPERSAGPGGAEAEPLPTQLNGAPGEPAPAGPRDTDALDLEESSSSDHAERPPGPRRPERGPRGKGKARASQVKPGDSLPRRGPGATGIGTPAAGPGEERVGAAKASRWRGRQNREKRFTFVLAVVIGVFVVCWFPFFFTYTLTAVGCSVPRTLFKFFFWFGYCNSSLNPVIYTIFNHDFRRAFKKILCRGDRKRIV

[7] = biological target: T5, Amine oxidase [flavin-containing] A (Homo sapiens, UniProt P21397); format: functional
T5 sequence (P21397 whole entry): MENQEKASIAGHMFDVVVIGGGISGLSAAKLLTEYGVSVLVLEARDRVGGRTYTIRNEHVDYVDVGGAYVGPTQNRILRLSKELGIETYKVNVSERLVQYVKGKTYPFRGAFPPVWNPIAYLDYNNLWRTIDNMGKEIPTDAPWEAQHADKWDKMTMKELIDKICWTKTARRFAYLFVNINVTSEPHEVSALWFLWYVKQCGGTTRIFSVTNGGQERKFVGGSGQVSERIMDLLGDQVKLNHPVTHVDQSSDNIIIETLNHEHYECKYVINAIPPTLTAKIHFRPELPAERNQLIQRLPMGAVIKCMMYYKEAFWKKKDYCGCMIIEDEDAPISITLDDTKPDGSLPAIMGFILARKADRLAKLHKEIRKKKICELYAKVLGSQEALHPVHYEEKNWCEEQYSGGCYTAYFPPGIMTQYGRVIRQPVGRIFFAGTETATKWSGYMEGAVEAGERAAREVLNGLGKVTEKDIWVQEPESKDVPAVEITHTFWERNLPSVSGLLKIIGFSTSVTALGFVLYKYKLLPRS

Histamine H3 receptor = Histamine H3 receptor (Homo sapiens, UniProt Q9Y5N1)
[8] = biological target: Voltage-gated inwardly rectifying potassium channel KCNH2 (Homo sapiens, UniProt Q12809); format: functional; details: read-out: AC50
Also: assay procedure not described here.

Sequence of Mu-type opioid receptor (P35372 whole entry): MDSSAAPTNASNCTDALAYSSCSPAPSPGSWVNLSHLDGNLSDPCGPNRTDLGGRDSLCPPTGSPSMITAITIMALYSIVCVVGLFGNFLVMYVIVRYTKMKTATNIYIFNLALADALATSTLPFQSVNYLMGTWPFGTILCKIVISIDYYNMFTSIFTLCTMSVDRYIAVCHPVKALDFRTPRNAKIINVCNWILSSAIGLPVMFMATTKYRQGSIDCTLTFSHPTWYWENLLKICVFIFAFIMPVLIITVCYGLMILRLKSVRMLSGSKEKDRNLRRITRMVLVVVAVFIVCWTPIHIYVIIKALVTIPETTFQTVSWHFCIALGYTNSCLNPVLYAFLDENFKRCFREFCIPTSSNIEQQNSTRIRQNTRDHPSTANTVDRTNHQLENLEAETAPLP
Sequence of Prostaglandin G/H synthase 1 (P23219 whole entry): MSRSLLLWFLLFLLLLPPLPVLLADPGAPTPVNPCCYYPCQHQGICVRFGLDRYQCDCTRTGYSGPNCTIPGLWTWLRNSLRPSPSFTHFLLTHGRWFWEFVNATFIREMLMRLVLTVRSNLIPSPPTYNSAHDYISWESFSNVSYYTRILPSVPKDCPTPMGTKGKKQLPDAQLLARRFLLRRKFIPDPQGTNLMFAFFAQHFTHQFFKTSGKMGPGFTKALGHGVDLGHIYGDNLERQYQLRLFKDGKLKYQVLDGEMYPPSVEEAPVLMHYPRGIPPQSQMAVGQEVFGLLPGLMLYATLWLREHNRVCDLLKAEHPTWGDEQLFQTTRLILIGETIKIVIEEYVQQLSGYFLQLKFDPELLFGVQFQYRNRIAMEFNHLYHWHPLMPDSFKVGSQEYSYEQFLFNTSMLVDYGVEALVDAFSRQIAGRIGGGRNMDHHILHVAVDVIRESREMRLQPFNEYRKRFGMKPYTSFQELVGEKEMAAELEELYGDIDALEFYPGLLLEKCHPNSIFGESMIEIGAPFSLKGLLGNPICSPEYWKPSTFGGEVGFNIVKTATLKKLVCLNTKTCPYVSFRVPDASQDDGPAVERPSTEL
Sequence of D(1A) dopamine receptor (P21728 whole entry): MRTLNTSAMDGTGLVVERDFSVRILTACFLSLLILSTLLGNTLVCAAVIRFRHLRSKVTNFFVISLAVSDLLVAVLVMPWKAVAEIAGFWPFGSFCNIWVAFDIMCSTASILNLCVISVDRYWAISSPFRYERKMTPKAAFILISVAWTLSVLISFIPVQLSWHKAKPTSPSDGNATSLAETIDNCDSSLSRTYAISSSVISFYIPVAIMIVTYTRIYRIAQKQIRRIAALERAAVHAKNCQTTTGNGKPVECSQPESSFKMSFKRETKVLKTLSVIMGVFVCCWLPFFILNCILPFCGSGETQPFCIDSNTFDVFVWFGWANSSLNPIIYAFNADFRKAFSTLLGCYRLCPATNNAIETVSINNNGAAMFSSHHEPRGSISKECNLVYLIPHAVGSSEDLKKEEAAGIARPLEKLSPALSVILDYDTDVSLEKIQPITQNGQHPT
Sequence of 5-hydroxytryptamine receptor 2B (P41595 whole entry): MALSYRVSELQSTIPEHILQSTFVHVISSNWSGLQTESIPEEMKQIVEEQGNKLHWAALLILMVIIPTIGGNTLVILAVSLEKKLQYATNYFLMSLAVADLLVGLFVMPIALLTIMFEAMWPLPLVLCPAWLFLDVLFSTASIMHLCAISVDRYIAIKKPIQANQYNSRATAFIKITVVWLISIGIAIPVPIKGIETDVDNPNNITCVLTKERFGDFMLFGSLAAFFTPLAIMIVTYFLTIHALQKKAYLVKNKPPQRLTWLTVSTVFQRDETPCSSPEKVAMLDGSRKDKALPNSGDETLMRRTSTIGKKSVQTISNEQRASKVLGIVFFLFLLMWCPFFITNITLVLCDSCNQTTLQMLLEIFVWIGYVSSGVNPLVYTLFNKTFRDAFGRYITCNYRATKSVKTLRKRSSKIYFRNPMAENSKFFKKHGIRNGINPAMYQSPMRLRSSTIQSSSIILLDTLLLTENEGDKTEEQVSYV
Sequence of Sodium-dependent noradrenaline transporter (P23975 whole entry): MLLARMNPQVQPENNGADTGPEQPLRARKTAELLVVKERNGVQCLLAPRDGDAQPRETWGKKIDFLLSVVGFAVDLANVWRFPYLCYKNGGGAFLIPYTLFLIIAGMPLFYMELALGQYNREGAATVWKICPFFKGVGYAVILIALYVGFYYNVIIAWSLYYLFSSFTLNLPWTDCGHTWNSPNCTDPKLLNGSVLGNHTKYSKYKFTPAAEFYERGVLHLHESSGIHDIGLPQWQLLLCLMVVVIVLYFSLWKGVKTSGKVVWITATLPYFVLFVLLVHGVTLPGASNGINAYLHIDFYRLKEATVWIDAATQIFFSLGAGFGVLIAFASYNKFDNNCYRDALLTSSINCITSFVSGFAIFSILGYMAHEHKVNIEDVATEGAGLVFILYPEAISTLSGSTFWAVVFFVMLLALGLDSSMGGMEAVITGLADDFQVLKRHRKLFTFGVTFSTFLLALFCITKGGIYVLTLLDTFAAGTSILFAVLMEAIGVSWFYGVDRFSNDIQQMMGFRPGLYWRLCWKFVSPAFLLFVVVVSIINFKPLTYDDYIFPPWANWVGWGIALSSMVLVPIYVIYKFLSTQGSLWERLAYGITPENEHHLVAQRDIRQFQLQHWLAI
Sequence of Sodium-dependent dopamine transporter (Q01959 whole entry): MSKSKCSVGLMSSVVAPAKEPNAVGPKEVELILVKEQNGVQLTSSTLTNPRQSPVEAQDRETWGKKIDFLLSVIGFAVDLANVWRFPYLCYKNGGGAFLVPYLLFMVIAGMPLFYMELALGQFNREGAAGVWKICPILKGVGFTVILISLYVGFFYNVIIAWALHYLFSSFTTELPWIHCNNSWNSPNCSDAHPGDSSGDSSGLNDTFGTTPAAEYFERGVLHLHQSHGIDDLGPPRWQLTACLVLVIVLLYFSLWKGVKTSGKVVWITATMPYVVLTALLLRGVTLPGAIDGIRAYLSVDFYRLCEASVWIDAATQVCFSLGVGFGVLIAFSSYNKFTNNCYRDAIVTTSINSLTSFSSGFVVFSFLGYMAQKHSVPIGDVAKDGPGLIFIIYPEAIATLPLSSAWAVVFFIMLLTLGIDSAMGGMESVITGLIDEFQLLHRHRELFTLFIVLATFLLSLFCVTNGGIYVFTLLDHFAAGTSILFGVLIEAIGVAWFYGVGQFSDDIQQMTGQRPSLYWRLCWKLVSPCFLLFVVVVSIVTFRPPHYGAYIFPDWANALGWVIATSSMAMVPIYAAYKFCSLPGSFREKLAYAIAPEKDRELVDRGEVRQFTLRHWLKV
Sequence of Histamine H3 receptor (Q9Y5N1 whole entry): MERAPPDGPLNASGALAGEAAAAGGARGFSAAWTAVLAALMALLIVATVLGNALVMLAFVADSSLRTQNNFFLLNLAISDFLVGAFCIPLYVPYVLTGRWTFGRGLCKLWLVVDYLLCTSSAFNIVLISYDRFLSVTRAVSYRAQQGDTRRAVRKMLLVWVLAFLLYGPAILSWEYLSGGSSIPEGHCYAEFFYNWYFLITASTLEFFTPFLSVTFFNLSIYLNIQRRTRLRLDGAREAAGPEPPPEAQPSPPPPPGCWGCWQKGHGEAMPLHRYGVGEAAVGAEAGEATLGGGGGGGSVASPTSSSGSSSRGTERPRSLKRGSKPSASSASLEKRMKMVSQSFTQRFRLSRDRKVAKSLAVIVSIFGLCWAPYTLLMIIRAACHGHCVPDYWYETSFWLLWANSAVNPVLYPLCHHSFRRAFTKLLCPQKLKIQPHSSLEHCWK
Sequence of Voltage-gated inwardly rectifying potassium channel KCNH2 (Q12809 whole entry): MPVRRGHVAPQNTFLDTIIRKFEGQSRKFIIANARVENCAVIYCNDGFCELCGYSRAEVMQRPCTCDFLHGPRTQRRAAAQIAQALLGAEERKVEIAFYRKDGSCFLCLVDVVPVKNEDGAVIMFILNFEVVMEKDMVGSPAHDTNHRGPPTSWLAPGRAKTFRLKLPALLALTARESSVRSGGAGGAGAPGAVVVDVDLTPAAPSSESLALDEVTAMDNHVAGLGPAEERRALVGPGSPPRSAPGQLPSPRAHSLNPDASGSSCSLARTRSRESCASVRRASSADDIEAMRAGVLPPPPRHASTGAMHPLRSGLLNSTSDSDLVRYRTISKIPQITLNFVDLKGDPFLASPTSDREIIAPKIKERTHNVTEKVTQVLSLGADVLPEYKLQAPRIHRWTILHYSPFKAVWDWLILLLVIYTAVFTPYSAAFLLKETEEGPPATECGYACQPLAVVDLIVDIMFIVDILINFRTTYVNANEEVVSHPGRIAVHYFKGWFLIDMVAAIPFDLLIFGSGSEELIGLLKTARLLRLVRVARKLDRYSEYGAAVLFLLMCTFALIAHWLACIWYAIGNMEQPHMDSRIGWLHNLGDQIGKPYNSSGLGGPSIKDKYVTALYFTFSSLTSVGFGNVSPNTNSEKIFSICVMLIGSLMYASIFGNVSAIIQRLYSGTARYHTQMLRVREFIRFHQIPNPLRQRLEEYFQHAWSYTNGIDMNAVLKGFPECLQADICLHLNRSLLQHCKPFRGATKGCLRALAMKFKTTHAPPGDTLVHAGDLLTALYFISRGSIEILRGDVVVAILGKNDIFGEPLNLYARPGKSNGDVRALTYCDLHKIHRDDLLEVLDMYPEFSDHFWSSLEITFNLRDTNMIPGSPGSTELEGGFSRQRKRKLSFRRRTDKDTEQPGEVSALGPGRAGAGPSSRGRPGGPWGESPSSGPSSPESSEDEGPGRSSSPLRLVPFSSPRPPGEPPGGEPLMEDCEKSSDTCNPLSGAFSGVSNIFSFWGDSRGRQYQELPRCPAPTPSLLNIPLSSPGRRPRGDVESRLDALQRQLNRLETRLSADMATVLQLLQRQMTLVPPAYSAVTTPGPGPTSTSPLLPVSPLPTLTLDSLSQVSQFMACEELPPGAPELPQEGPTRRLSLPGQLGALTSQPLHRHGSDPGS

| SMILES | AC50 [1] | AC50 [2] | AC50 (D(1A) dopamine receptor) | AC50 (Estrogen receptor) | AC50 [3] | AC50 [4] | AC50 (Mu-type opioid receptor) | AC50 [5] | AC50 (Prothrombin) | AC50 (Thromboxane A2 receptor) | AC50 [6] | AC50 [7] | AC50 (Histamine H3 receptor) | AC50 [8] |
| --- | --- | --- | --- | --- | --- | --- | --- | --- | --- | --- | --- | --- | --- | --- |
| C[C@@H]1C[C@H]2[C@@H]3C[C@H](F)C4=CC(=O)C=C[C@]4(C)[C@@]3(Cl)[C@@H](O)C[C@]2(C)[C@H]1C(=O)COC(=O)C(C)(C)C [CLOCORTOLONE PIVALATE] | > 30 µM | > 10 µM | > 30 µM | > 30 µM | > 30 µM | > 30 µM | > 10 µM | > 30 µM | > 30 µM | > 30 µM | > 30 µM | > 30 µM | > 30 µM |  |
| O=P(O)(O)C(Cl)(Cl)P(=O)(O)O [CLODRONIC ACID] | > 30 µM | > 30 µM | > 30 µM | > 30 µM | > 30 µM | > 30 µM | > 30 µM | > 30 µM | > 30 µM | > 30 µM | > 30 µM | > 30 µM | > 30 µM |  |
| Nc1ccncc1 [DALFAMPRIDINE] | > 30 µM | > 30 µM | > 30 µM | > 30 µM | > 30 µM | > 30 µM | > 30 µM | > 30 µM | > 30 µM | > 30 µM | > 30 µM | > 30 µM | > 30 µM |  |
| O=C(CCCN1CC=C(n2c(=O)[nH]c3ccccc32)CC1)c1ccc(F)cc1 [DROPERIDOL] | > 30 µM | > 30 µM | > 30 µM | > 30 µM | > 30 µM | > 30 µM | > 30 µM | > 30 µM | > 30 µM | > 30 µM | > 30 µM | > 30 µM | > 30 µM |  |
| CCC(=O)O[C@@H]1CC(=O)O[C@H](C)C/C=C/C=C/[C@H](OC(C)=O)[C@H](C)C[C@H](CC=O)[C@H](O[C@@H]2O[C@H](C)[C@@H](O[C@H]3C[C@@](C)(OC(C)=O)[C@@H](OC(=O)CC)[C@H](C)O3)[C@H](N(C)C)[C@H]2O)[C@H]1OC [MIOCAMYCIN] | > 30 µM | > 30 µM | > 30 µM | > 30 µM | > 30 µM | > 30 µM | > 30 µM |  | > 30 µM | > 30 µM | > 30 µM | > 30 µM | > 30 µM |  |
| COCCCOc1ccnc(C[S+]([O-])c2nc3ccccc3[nH]2)c1C (configuration not stated) [RABEPRAZOLE] | 25.4 µM | > 30 µM | > 30 µM |  | 17.9 µM | > 30 µM | 7.93 µM | > 30 µM | > 30 µM | > 30 µM | > 30 µM | > 30 µM | > 30 µM | 5.33 µM |
